From patent US6833372B2, “Non-peptide GnRH agents, Pharmaceutical compositions, and methods for their use” (Pfizer, Inc., priority 2002, dated 2004) come the findings set out here.

The target in one assay is T1, human GnRH receptors (Homo sapiens, UniProt P30968).
T1 construct: expressed in transfected cells; host or cells: HEK 293 cells, stably transfected; membranes
T1 sequence (P30968 1-328): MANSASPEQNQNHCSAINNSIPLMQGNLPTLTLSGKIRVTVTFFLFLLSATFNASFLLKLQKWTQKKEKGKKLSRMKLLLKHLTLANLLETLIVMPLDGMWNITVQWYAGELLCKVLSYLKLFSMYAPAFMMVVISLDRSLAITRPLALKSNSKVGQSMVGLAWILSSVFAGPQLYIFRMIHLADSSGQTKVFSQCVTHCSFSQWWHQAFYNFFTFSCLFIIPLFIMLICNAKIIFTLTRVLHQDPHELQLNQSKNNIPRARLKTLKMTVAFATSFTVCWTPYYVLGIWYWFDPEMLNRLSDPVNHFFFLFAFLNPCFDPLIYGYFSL
The experiment in a line: Radioligand binding: inhibition of 125I-GnRH-A binding to human GnRH receptor membranes. As to conditions: HEK 293 cell membranes. On the procedure:
HEK 293 cells stably transfected with mouse or human GnRH receptors as described above were grown in Dulbecco's high-glucose, modified Eagle's medium (DMEM) supplemented with 0.2% G418, 10% fetal bovine serum (FBS) and 100 U/mL penicillin/streptomycin. GH3 cells stably transfected with the rat GnRH receptor (GGH3) were provided by Dr. William Chin (Harvard Medical School, Boston, Mass.). These cells have been extensively characterized previously (Kaiser et al., 1997). The cells were grown in low glucose DMEM containing: 100U/mL penicillin/streptomycin, 0.6% G418 and 10% heat-inactivated FBS.
(§1) HEK 293 cells containing mouse or human receptors, or rat pituitaries (Pel Freez Biologicals, Rogers, Ark.) were homogenized in buffer A containing: 50 mM Tris (pH 7.4), 0.32 M sucrose, 2 mM EGTA, 1 mM PMSF, 5 μg/ml aprotinen, 5 μg/ml Pepstatin A, and 1 μg/ml leupeptin. Homogenized cells were centrifuged at 4° C. at 20,000×g for 25 minutes, re-suspended in buffer A and re-centrifuged at 4° C. at 20,000×g for an additional 25 minutes. Total membrane protein was determined with a BCA kit (Pierce, Rockford, Ill.). Membranes were stored at −70° C. at a final membrane protein concentration of approximately 5 mg/ml.
(§2) The radioiodinated agonist analog of GnRH, [des-Gly^10,D-Ala^6]GnRH ethylamide (^125I-GnRH-A), was used as the radioligand. […] The reaction mixture was vortexed and incubated for 1 minute at room temperature. After one minute, the mixture was vortexed and allowed to incubate for an additional minute. 2 ml of 0.5 M acetic acid/1% BSA was added to the reaction tube and the mixture was added to a C18 Sep-Pak cartridge. The cartridge was washed with subsequent washes of 5 ml H2O and 5 ml 0.5 M acetic acid and then eluted with 5×1 ml of 60% CH3CN/40% 0.5 M acetic acid. The eluate was diluted with 3× volume of HPLC buffer A (0.1% TFA in H2O) and loaded onto a C18 column. The iodinated product was eluted over 20-25 min with a gradient of 25-100% CH3CN containing 0.1% TFA. The radioactive fractions (750 μl/fraction) were collected into clean polypropylene tubes containing 100 μl of 10% BSA. Fractions were assessed for biological activity by radioligand binding. Specific activity of the radioligand was approximately 2200 Ci/mmol.
(§3) Membranes were diluted to 0.01-0.5 mg/ml (depending upon the species of receptor) with assay buffer containing 50 mM HEPES (pH 7.4), 1 mM EDTA, 2.5 mM MgCl2, and 0.1% BSA. Membranes (diluted to utilize similar receptor numbers between assays) were incubated with approximately 0.04-0.06 nM ^125I-GnRH-A in the presence or absence of competing agents (0.1-10,000 nM) in a total volume of 200 μl in 96-well polypropylene plates for 1 hour at room temperature. Assays were stopped by rapid filtration onto 96-well GF/C filters soaked in 0.1% polyethylenimine (PEI) utilizing a Packard 96-well cell harvester. Filters were washed three times with ice-cold PBS (50 mM NaPO4, 0.9% NaCl, 2 mM MgCl2, and 0.02% NaN3, pH 7.4). 35 μl of scintillation cocktail was added to each filter well and filters were counted on a Packard Topcount. Control dose-response curves were generated to GnRH (0.1 nM-100 nM) in each competition binding experiment. Ki values were calculated from IC50 values according to Cheng et al., Biochemical Pharmacol. 22: 3099-3108, 1973. [formula]

The target in the next assay is T2, rat GnRH receptor (Rattus norvegicus, UniProt P30969).
T2 construct: or rat pituitaries (Pel Freez Biologicals, Rogers, Ark.) were homogenized; tissue Pel Freez Biologicals; host or cells: rat pituitaries (membrane preparation)
T2 sequence (P30969 1-327): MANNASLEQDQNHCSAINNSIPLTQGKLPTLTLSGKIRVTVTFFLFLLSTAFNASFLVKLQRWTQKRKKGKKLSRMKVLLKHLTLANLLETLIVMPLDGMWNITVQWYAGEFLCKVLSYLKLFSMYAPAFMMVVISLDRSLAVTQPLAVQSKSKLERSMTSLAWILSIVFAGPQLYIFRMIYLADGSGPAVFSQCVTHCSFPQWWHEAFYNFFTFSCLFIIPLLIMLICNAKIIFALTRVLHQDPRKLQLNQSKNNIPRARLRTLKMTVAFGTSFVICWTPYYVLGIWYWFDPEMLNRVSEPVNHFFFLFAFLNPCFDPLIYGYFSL
The experiment in a line: Radioligand binding: inhibition of 125I-GnRH-A binding to rat GnRH receptor (rat pituitary membranes). As to conditions: read-out: Ki (nM), Inhibition Binding of 125I-GnRH-A to GnRH Receptors. On the procedure: as §1, §2, §3

Molecules are shown by their SMILES.

For `COc1nc(Oc2ccccc2)nc(OC)c1NC(=O)c1ccc(Cc2cc3c(cc2C)C(C)(C)OC3(C)C)o1` [Example A2, 5-(1,1,3,3,6-Pentamethyl-1,3-dihydro-isobenzofuran-5-ylmethyl)-furan-2-carboxylic acid (4,6-dimethoxy-2-phenoxy-pyrimidin-5-yl)-amide], the results for the Ki at human GnRH receptors and on rat GnRH receptor were 7.6 nM and 9 nM, respectively.

Turning to `COCCOc1nc(OC)c(NC(=O)c2ccc(Cc3cc4c(cc3C)C(C)(C)OC4(C)C)o2)c(OC)n1` [Example A4, 5-(1,1,3,3,6-Pentamethyl-1,3-dihydro-isobenzofuran-5-ylmethyl)-furan-2-carboxylic acid [4,6-dimethoxy-2-(2-methoxy-ethoxy)-pyrimidin-5-yl]-amide], the results for the Ki at human GnRH receptors and on rat GnRH receptor were 18 nM and 9.5 nM, respectively.

On to `COc1nc(NC2CCN(C)CC2)nc(OC)c1NC(=O)c1ccc(Cc2cc3c(cc2C)C(C)(C)OC3(C)C)o1` [Example D13, N-{4,6-Dimethoxy-2-[(1-methylpiperidin-4-yl)amino]pyrimidin-5-yl}-5-[(1,1,3,3,6-pentamethyl-1,3-dihydro-2-benzofuran-5-yl)methyl]-2-furamide], for which the figures for the Ki on human GnRH receptors and at rat GnRH receptor were 38 nM and 16 nM, respectively.

Consider `COc1nc(N2CCN(CCN)CC2)nc(OC)c1NC(=O)c1ccc(Cc2cc3c(cc2C)C(C)(C)OC3(C)C)o1` [Example D15, N-{2-[4-(2-Aminoethyl)piperazin-1-yl]-4,6-dimethoxypyrimidin-5-yl}-5-[(1,1,3,3,6-pentamethyl-1,3-dihydro-2-benzofuran-5-yl)methyl]-2-furamide], for which the Ki on human GnRH receptors is 3.5 nM; on rat GnRH receptor, 2.4 nM.

With `COc1nc(NCCCn2ccnc2)nc(OC)c1NC(=O)c1ccc(Cc2cc3c(cc2C)C(C)(C)OC3(C)C)o1` [Example D19, N-(2-{[3-(1H-Imidazol-1-yl)propyl]amino}-4,6-dimethoxypyrimidin-5-yl}-5-[(1,1,3,3,6-pentamethyl-1,3-dihydro-2-benzofuran-5-yl)methyl]-2-furamide], the Ki came to 8.7 nM at human GnRH receptors and 1.9 nM at rat GnRH receptor.

Regarding `CNCCNc1nc(OC)c(NC(=O)c2ccc(Cc3cc4c(cc3C)C(C)(C)OC4(C)C)o2)c(OC)n1` [Example D20, N-(4,6-Dimethoxy-2-{[2-(methylamino)ethyl]amino}-pyrimidin-5-yl}-5-[(1,1,3,3,6-pentamethyl-1,3-dihydro-2-benzofuran-5-yl)methyl]-2-furamide], the Ki at human GnRH receptors is 1 nM; on rat GnRH receptor, 0.5 nM.

`COc1nc(N(C)Cc2cccnc2)nc(OC)c1NC(=O)c1ccc(Cc2cc3c(cc2C)C(C)(C)OC3(C)C)o1` [Example D38, N-{4,6-Dimethoxy-2-[methyl(pyridin-3-ylmethyl)amino]pyrimidin-5-yl}-5-[(1,1,3,3,6-pentamethyl-1,3-dihydro-2-benzofuran-5-yl)methyl]-2-furamide]: the figures for the inhibition constant (Ki) at human GnRH receptors and on rat GnRH receptor were 22 nM and 15 nM, respectively.

For `CCCCC(CC)COCCCNc1nc(OC)c(NC(=O)c2ccc(Cc3cc4c(cc3C)C(C)(C)OC4(C)C)o2)c(OC)n1` (stereo not drawn) [Example D39, N-[2-({3-[(2-Ethylhexyl)oxy]propyl}amino)-4,6-dimethoxypyrimidin-5-yl]-5-[(1,1,3,3,6-pentamethyl-1,3-dihydro-2-benzofuran-5-yl)methyl]-2-furamide], the Ki at human GnRH receptors was 19 nM; on rat GnRH receptor, 5.4 nM.

As to `COc1nc(N2CCC3CNC(=O)C3C2)nc(OC)c1NC(=O)c1ccc(Cc2cc3c(cc2C)C(C)(C)OC3(C)C)o1` (stereo not drawn) [Example D40, N-[4,6-Dimethoxy-2-(3-oxooctahydro-5H-pyrrolo[3,4-c]pyridin-5-yl)pyrimidin-5-yl]-5-[(1,1,3,3,6-pentamethyl-1,3-dihydro-2-benzofuran-5-yl)methyl]-2-furamide], the Ki at human GnRH receptors worked out at 27 nM; at rat GnRH receptor it was 30 nM.

Take `COc1nc(N(C)CCCCCCO)nc(OC)c1NC(=O)c1ccc(Cc2cc3c(cc2C)C(C)(C)OC3(C)C)o1` [Example D41, N-{2-[(6-Hydroxyhexyl)(methyl)amino]-4,6-dimethoxypyrimidin-5-yl}-5-[(1,1,3,3,6-pentamethyl-1,3-dihydro-2-benzofuran-5-yl)methyl]-2-furamide]: the figures for the Ki on human GnRH receptors and at rat GnRH receptor were 12 nM and 15 nM, respectively.

Consider `COc1nc(NCCSCCO)nc(OC)c1NC(=O)c1ccc(Cc2cc3c(cc2C)C(C)(C)OC3(C)C)o1` [Example D42, N-[2-({2-[(2-Hydroxyethyl)thio]ethyl}amino)-4,6-dimethoxypyrimidin-5-yl]-5-[(1,1,3,3,6-pentamethyl-1,3-dihydro-2-benzofuran-5-yl)methyl]-2-furamide], for which the values for the Ki at human GnRH receptors and at rat GnRH receptor were 1.6 nM and 0.64 nM, respectively.

`COc1nc(NCCc2ccncc2)nc(OC)c1NC(=O)c1ccc(Cc2cc3c(cc2C)C(C)(C)OC3(C)C)o1` [Example D66, N-{4,6-Dimethoxy-2-[(2-pyridin-4-ylethyl)amino]pyrimidin-5-yl}-5-[(1,1,3,3,6-pentamethyl-1,3-dihydro-2-benzofuran-5-yl)methyl]-2-furamide] displayed a Ki at human GnRH receptors of 5.1 nM.

On human GnRH receptors, `COc1nc(NCCCN2CCOCC2)nc(OC)c1NC(=O)c1ccc(Cc2c(C)cc3c(c2C)C(C)(C)CO3)o1` [Example H1, N-{4,6-Dimethoxy-2-[(3-morpholin-4-ylpropyl)amino]-pyrimidin-5-yl}-5-[(3,3,4,6-tetramethyl-2,3-dihydro-1-benzofuran-5-yl)methyl]-2-furamide] had a Ki of 50 nM.

`COc1nc(NCCCN2CCN(C)CC2)nc(OC)c1NC(=O)c1ccc(Cc2c(C)cc3c(c2C)C(C)(C)CO3)o1` [Example H2, N-(4,6-Dimethoxy-2-{[3-(4-methylpiperazin-1-yl)propyl]amino}pyrimidin-5-yl)-5-[(3,3,4,6-tetramethyl-2,3-dihydro-1-benzofuran-5-yl)methyl]-2-furamide]: at human GnRH receptors, the Ki amounted to 47 nM.

On to `COc1nc(NCCCN(C)C)nc(OC)c1NC(=O)c1ccc(Cc2c(C)cc3c(c2C)C(C)(C)CO3)o1` [Example H3, N-(2-{[3-(Dimethylamino)propyl]amino}-4,6-dimethoxypyrimidin-5-yl)-5-[(3,3,4,6-tetramethyl-2,3-dihydro-1-benzofuran-5-yl)methyl]-2-furamide], for which affinity on human GnRH receptors was put at a Ki of 46 nM.

At human GnRH receptors, `COc1nc(NCCCN(C)C)nc(OC)c1NC(=O)c1ccc(Cc2cc3c(cc2C)C(C)(C)CC3(C)C)o1` [Example J1, N-(2-{[3-(dimethylamino)propyl]amino}-4,6-dimethoxypyrimidin-5-yl)-5-[(1,1,3,3,6-pentamethyl-2,3-dihydro-1H-inden-5-yl)methyl]-2-furamide] showed a Ki of 0.2 nM.

What is called Ki is a dissociation constant, usually derived from enzyme kinetics or from competition with a known ligand.
